The source of these data is patent US10947271B2, “Antibacterial agents” (THE UNIVERSITY OF QUEENSLAND, priority 2014, dated 2021).

Series [1] has as its system Staphylococcus aureus MRSA ATCC 43300. Briefly: MIC assay, S. aureus MRSA ATCC 43300. The series is classed as cell-based. To be noted: 24 h incubation, visual reading. In outline: (§1)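 MHB broth microdilution, twofold series, compounds 8–0.003 μg/ml; mid-log inoculum 5×10e5 CFU/mL; 37° C, 24 h; MIC read visually as lowest concentration without growth.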
Series [2] relates to Enterococcus faecium MDR Van A ATCC 51559. Briefly: MIC assay, E. faecium MDR Van A ATCC 51559. To be noted: 24 h incubation, visual reading. It counts as cell-based. In outline:
as §1

Series [3] has as its system Streptococcus pneumoniae MDR ATCC 700677. The series is described as follows: MIC assay, S. pneumoniae MDR ATCC 700677. The series is classed as cell-based. The settings on record: 24 h incubation, visual reading. The method, boiled down: as §1
A further series concerns MRSA (Strain ATCC 43300). The series is described as follows: Murine thigh infection model (MRSA). It counts as in vivo, Staphylococcus aureus. The settings on record: neutropenic CD1 mice.
The nature of series [4]: Stability of compounds in human plasma. The settings on record: 50% human plasma/PBS pH 7.4, 37° C. The protocol: Briefly test compounds (20 μM) were prepared from a 1 mM stock solution. The human plasma sample (200 μl) was diluted with 160 μl phosphate-buffer saline (PBS, pH 7.4) to a concentration of 50% v/v before use. Solutions were then vortexed and placed on a 37° C. shaker and shaken gently for 10 minutes. 40 μl of the test compounds were then added to the plasma sample and vortexed. For the reaction time t=0 hour, 50 μl of sample was immediately transferred into an eppendorf tube and quenched with 150 μl cold acetonitrile. The remaining plasma solution was incubated and shaken at 37° C. Other samples were collected at time points of 0, 1, 3, 6 and 24 hours whereby 50 μl aliquots were removed and quenched with 150 μl cold acetonitrile. All samples were placed in a 4° C. fridge for 10 minutes then centrifuged at 3000 rpm for 15 minutes. The supernatant (100 μl) was transferred to a glass vial insert for LCMS analysis. The percentage of test compounds remaining at the individual time points relative to sample at time point 0 hour were reported.
Plasma: Human Plasma (Pooled Normal Human Plasma Heparin Anticoagulant 50 mL (IPLA-2 N-04 lot IR09-1001, originally from Innovative Research and imported by BioCore).
All compounds in 100% water (40 μL in 400 μL assay volume equivalent […])
Compounds: 40 μL of the vancomycin derivative solution was added to 160 μL of PBS (pH 7.4) respectively in an Eppendorf tube. 600 μL of cold acetonitrile was added, the tube vortexed and transferred to a glass vial for LC-MS analysis.
Eucatropine: 200 μL of plasma and 190 μL of buffer were vortexed, shaken at 37° C. for 10 minutes. 10 μL of eucatropine solution was then added and the tube vortexed. A 50 μL aliquot was immediately transferred to an Eppendorf tube, 150 μL of cold acetonitrile added and the tube transferred to a 4° C. fridge for 10 minutes. The remaining plasma solution was then transferred to the incubator and shaken at 37° C. The tube was retrieved from the fridge, centrifuged at 3000 rpm for 15 min and 100 μL of supernatant transferred to a glass vial insert for LC-MS analysis. 50 μL aliquots were processed as above at 1, […], 3, 6 and 24 hours and 5 μL was injected into triple quad MS system for analysis. Vancomycin derivatives: 200 μL of plasma and 160 μL of buffer were vortexed and shaken at 37° C. for 10 minutes. 40 μL of compound was then added and the sample was processed as above.

Setting [5] is: single subcutaneous dose 10 mg/kg.
Setting [6] is: single subcutaneous dose 25 mg/kg.

Regarding `CCCCCCCCCCC(=O)N[C@@H](CCCCN)C(=O)N[C@@H](CCCCNC(=O)[C@H]1NC(=O)[C@H]2NC(=O)[C@H](NC(=O)[C@@H]3NC(=O)[C@H](CC(N)=O)NC(=O)[C@H](NC(=O)[C@@H](CC(C)C)NC)[C@H](O)c4ccc(c(Cl)c4)Oc4cc3cc(c4O[C@@H]3O[C@H](CO)[C@@H](O)[C@H](O)[C@H]3O[C@H]3C[C@](C)(N)[C@H](O)[C@H](C)O3)Oc3ccc(cc3Cl)[C@H]2O)c2ccc(O)c(c2)-c2c(O)cc(O)cc21)C(=O)O` [MCC_000080, nC10CO-K-K(Vanc)-OH], the “Minimum Inhibitory Concentration (MIC) Staph. aureus ATCC43300” value in series [1] is listed as “xxx (xxx = 0.1-<1)”. Moreover, in series [2], the “Minimum Inhibitory Concentration (MIC) E. faecium ATCC51559” value is “x (x = >4)”. Moreover, the “Minimum Inhibitory Concentration (MIC) S. pneumoniae ATCC 700677” value in series [3] was “xxx (xxx = 0.1-<1)”. The “Average Reduction log Δcfu MRSA/thigh after 26 h” value is “xxx (xxx = 4-6)” in the series with MRSA (Strain ATCC 43300) (setting [5]) and “xxxx (xxxx = >6)” in the series with MRSA (Strain ATCC 43300) (setting [6]). The “% compound remaining after incubation in 50% human plasma” value (shortened to “% compound remaining after incubation”) is 100% in series [4] (0 h (reference time point)); 101% in series [4] (1 h); 101% in series [4] (3 h); 100% in series [4] (6 h); 89% in series [4] (24 h).

In the case of `CN[C@H](CC(C)C)C(=O)N[C@H]1C(=O)N[C@@H](CC(N)=O)C(=O)N[C@H]2C(=O)N[C@H]3C(=O)NC(C(=O)N[C@H](C(=O)O)c4cc(O)cc(O)c4-c4cc3ccc4O)[C@H](O)c3ccc(c(Cl)c3)Oc3cc2cc(c3OC2OC(CO)C(O)C(O)C2OC2CC(C)(N)C(O)C(C)O2)Oc2ccc(cc2Cl)[C@H]1O` (some centres unmarked) [MCC_000095, vancomycin, reference compound], the “Average Reduction log Δcfu MRSA/thigh after 26 h” value is reported as “x (x = 0-2)” with MRSA (Strain ATCC 43300) (setting [6]) and “xxx (xxx = 4-6)” with MRSA (Strain ATCC 43300) (single subcutaneous dose 200 mg/kg). Moreover, the “% compound remaining after incubation” value in series [4] (0 h (reference time point)) is recorded as 100%; in series [4] (1 h) it was 176%; in series [4] (3 h), 145%; in series [4] (6 h) it was 149%; in series [4] (24 h), 65%.

For `CNC(CC(C)C)C(=O)NC1C(=O)NC(CC(N)=O)C(=O)NC2C(=O)NC3C(=O)NC(C(=O)NC(C(=O)NCCCCC(NC(=O)C(CCCCN)NC(=O)C(CCCCN)NC(=O)c4ccc(Oc5ccccc5)cc4)C(=O)O)c4cc(O)cc(O)c4-c4cc3ccc4O)C(O)c3ccc(c(Cl)c3)Oc3cc2cc(c3OC2OC(CO)C(O)C(O)C2OC2CC(C)(N)C(O)C(C)O2)Oc2ccc(cc2Cl)C1O` (centres unmarked) [MCC_000214, (4-PhO-PhCO)-KK-K(Vanc)-OH], the “Minimum Inhibitory Concentration (MIC) Staph. aureus ATCC43300” value in series [1] was “xxx (xxx = 0.1-<1)”. In addition, the “Minimum Inhibitory Concentration (MIC) E. faecium ATCC51559” value in series [2] is recorded as “x (x = >4)”. Also, in series [3], the “Minimum Inhibitory Concentration (MIC) S. pneumoniae ATCC 700677” value is listed as “xxx (xxx = 0.1-<1)”. Moreover, the “Average Reduction log Δcfu MRSA/thigh after 26 h” value in the series with MRSA (Strain ATCC 43300) (single subcutaneous dose 50 mg/kg) is on record as “xxx (xxx = 4-6)”. The “% compound remaining after incubation” value in series [4] (0 h (reference time point)) is on record as 100%; in series [4] (1 h), 101%; in series [4] (6 h) it was 107%; in series [4] (24 h), 111%.

In the case of `CCCCCCCCCC(=O)N[C@@H](CCCCN)C(=O)N[C@@H](CCCCN)C(=O)N1CCC(CNC(=O)[C@H]2NC(=O)[C@H]3NC(=O)[C@H](NC(=O)[C@@H]4NC(=O)[C@H](CC(N)=O)NC(=O)[C@H](NC(=O)[C@@H](CC(C)C)NC)[C@H](O)c5ccc(c(Cl)c5)Oc5cc4cc(c5O[C@@H]4O[C@H](CO)[C@@H](O)[C@H](O)[C@H]4O[C@H]4C[C@](C)(N)[C@H](O)[C@H](C)O4)Oc4ccc(cc4Cl)[C@H]3O)c3ccc(O)c(c3)-c3c(O)cc(O)cc32)CC1` [MCC_005489], in series [1], the “Minimum Inhibitory Concentration (MIC) Staph. aureus ATCC43300” value is listed as “xxxx (xxxx = 0.01-<0.1)”. Also, the “Minimum Inhibitory Concentration (MIC) E. faecium ATCC51559” value in series [2] is “xx (xx = 1-4)”. In addition, the “Minimum Inhibitory Concentration (MIC) S. pneumoniae ATCC 700677” value in series [3] is on record as “xxxx (xxxx = 0.01-<0.1)”. For the same compound, in the series with MRSA (Strain ATCC 43300) (setting [5]), the “Average Reduction log Δcfu MRSA/thigh after 26 h” value was “xxx (xxx = 4-6)”.

On to `CN[C@H](CC(C)C)C(=O)N[C@H]1C(=O)N[C@@H](CC(N)=O)C(=O)N[C@H]2C(=O)N[C@H]3C(=O)N[C@H](C(=O)N[C@H](C(=O)NCCCC[C@H](NC(=O)[C@H](CCCCN(C)C)NC(=O)c4ccc(Oc5ccccc5)cc4)C(=O)O)c4cc(O)cc(O)c4-c4cc3ccc4O)[C@H](O)c3ccc(c(Cl)c3)Oc3cc2cc(c3O[C@@H]2O[C@H](CO)[C@@H](O)[C@H](O)[C@H]2O[C@H]2C[C@](C)(N)[C@H](O)[C@H](C)O2)Oc2ccc(cc2Cl)[C@H]1O` [MCC_007221], for which, in series [1], the “Minimum Inhibitory Concentration (MIC) Staph. aureus ATCC43300” value was “xxx (xxx = 0.1-<1)”. In addition, the “Minimum Inhibitory Concentration (MIC) E. faecium ATCC51559” value in series [2] is on record as “x (x = >4)”. Also, the “Minimum Inhibitory Concentration (MIC) S. pneumoniae ATCC 700677” value in series [3] is “xx (xx = 1-4)”. Further, the “Average Reduction log Δcfu MRSA/thigh after 26 h” value with MRSA (Strain ATCC 43300) (setting [5]) is recorded as “x (x = 0-2)”.

`CCCCCCCCC(=O)NC(CCCCN(C)C)C(=O)NCCCNC(=O)C1NC(=O)C2NC(=O)C(NC(=O)C3NC(=O)C(CC(N)=O)NC(=O)C(NC(=O)C(CC(C)C)NC)C(O)c4ccc(c(Cl)c4)Oc4cc3cc(c4OC3OC(CO)C(O)C(O)C3OC3CC(C)(N)C(O)C(C)O3)Oc3ccc(cc3Cl)C2O)c2ccc(O)c(c2)-c2c(O)cc(O)cc21` (centres unmarked) [MCC_007338]: the “Minimum Inhibitory Concentration (MIC) Staph. aureus ATCC43300” value in series [1] is reported as “xxx (xxx = 0.1-<1)”. Further, the “Minimum Inhibitory Concentration (MIC) E. faecium ATCC51559” value in series [2] is on record as “x (x = >4)”. In addition, the “Minimum Inhibitory Concentration (MIC) S. pneumoniae ATCC 700677” value in series [3] was “xxx (xxx = 0.1-<1)”. For the same compound, the “Average Reduction log Δcfu MRSA/thigh after 26 h” value in the series with MRSA (Strain ATCC 43300) (setting [5]) is “xx (xx = 2-4)”.

On to `CNC(CC(C)C)C(=O)NC1C(=O)NC(CC(N)=O)C(=O)NC2C(=O)NC3C(=O)NC(C(=O)NC(C(=O)NCCCNC(=O)C(CCCCN)NC(=O)c4ccc(Oc5ccccc5)cc4)c4cc(O)cc(O)c4-c4cc3ccc4O)C(O)c3ccc(c(Cl)c3)Oc3cc2cc(c3OC2OC(CO)C(O)C(O)C2OC2CC(C)(N)C(O)C(C)O2)Oc2ccc(cc2Cl)C1O` (centres unmarked) [MCC_007407], for which, in series [1], the “Minimum Inhibitory Concentration (MIC) Staph. aureus ATCC43300” value is recorded as “xxxx (xxxx = 0.01-<0.1)”. Besides, in series [2], the “Minimum Inhibitory Concentration (MIC) E. faecium ATCC51559” value is on record as “x (x = >4)”. Also, the “Minimum Inhibitory Concentration (MIC) S. pneumoniae ATCC 700677” value in series [3] is listed as “xxxx (xxxx = 0.01-<0.1)”. In the series with MRSA (Strain ATCC 43300) (setting [5]), the “Average Reduction log Δcfu MRSA/thigh after 26 h” value was “xxx (xxx = 4-6)”.
